Where two headings read alike, the source gives them in different places.
How the values were obtained:
[1] = test system: MYB mRNA; assay: Splicing RT-qPCR assay, MYB canonical (CJ) and alternative (AJ) junction mRNA; type: cell-based, human; conditions: Homo sapiens; for IC50: canonical junction mRNA; for AC50: alternative junction mRNA, read-out: MYB AJ (AC50, increase in AJ mRNA)
Procedure, shortened: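 Splicing switches are scored by TaqMan qPCR on cell lysate, comparing abundance of the normal exon junction with the new junction formed when the alternative exon is included. A673 results are referenced to PPIA and K562 results to GAPDH or GUSB. Compound exposure lasts 24 h.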

[2] = test system: K562 cells; assay: Cell viability, Cell Titer Glo 2.0 assay, K562; conditions: 72 hours
Procedure: Compounds described herein were screened for toxicity in K562 (human chronic myelogenous leukemia) and SH-SY5Y (human neuroblastoma) cells using a Cell Titer Glo 2.0 assay.
• Promega CellTiter-Glo® 2.0 Cell Viability Assay (cat #G9241) • Corning 384-well TC-treated microplates (cat #3570)
Cells were plated at 500 cells/well (K562 cells) in 45 μL of IMDM supplemented with 10% FBS in a 384-well opaque plate. Wells containing only medium were used as a blank control. Test compounds (e.g., compounds of Formula (I) or (II)) were first serially diluted in DMSO then diluted 1:100 with IMDM+10% FBS. The final concentration of DMSO was 0.1% in each well. The cells were incubated for 72 hours at 37° C. and 5% CO2 before assaying with Cell Titer Glo 2.0 reagent.

[3] = test system: SMN2 mRNA; assay: Splicing RT-qPCR panel, SMN2 canonical junction (CJ) mRNA; type: cell-based, human; conditions: Homo sapiens, read-out: SMN2 CJ (decrease in CJ mRNA levels, IC50)
Procedure, shortened: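 A673 cells (DMEM, 10% FBS) or K562 cells (IMDM, 10% FBS) treated 24 h at 37 °C with an 11-point 3-fold dilution, top 10 uM, DMSO ≤0.25%. Canonical-junction mRNA quantified in lysates by RT-qPCR, normalised to GAPDH, GUSB or PPIA and to DMSO (2^−ΔΔCt), then converted to % response.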

[4] = qPCR panel, read-out: MYB CJ (decrease in CJ mRNA levels, IC50)
[5] = RT-qPCR, A673 or K562 cells, 24 hours treatment
[6] = RT-qPCR, A673 or K562 cells, 24 hours treatment, read-out: MYB CJ (IC50, decrease in CJ mRNA)

Structure (SMILES)	IC50 [1, 4] [nM]	AC50 [1, 5] [nM]	IC50 [1, 6] [nM]	Effect on Cell Viability, K562 [2]	IC50 [3] [nM]
Cn1cc2cc(-c3cc(Cl)c4cc(N5CCNC(C6CC6)C5)cnc4n3)cc(F)c2n1 (centres unmarked) [Compound 209, 4-chloro-6-(3-cyclopropylpiperazin-1-yl)-2-(7-fluoro-2-methylindazol-5-yl)-1,8-naphthyridine]	100 to 1000	100 to 1000	100 to 1000	B (100-1000 nM)	< 100
Cc1cn2nc(-c3ccc4cc(NC5CCNCC5)cnc4n3)cc(C)c2n1 [Compound 210, 7-{2,8-dimethylimidazo[1,2-b]pyridazin-6-yl}-N-(piperidin-4-yl)-1,8-naphthyridin-3-amine; trifluoroacetic acid]	1000 to 10000	1000 to 10000	1000 to 10000	C (1000-9999 nM)	100 to 1000
CN[C@@H]1CCN(c2cnc3nc(-c4cc5cn(C)nc5c(C)c4O)nc(OC)c3c2)C1 [Compound 211, 5-{4-methoxy-6-[(3R)-3-(methylamino)pyrrolidin-1-yl]pyrido[2,3-d]pyrimidin-2-yl}-2,7-dimethylindazol-6-ol]	< 100	< 100	< 100	A (<100 nM)	< 100
CN[C@H]1CCN(c2cnc3nc(-c4cc5cn(C)nc5c(C)c4O)nc(OC)c3c2)C1 [Compound 212, 5-{4-methoxy-6-[(3S)-3-(methylamino)pyrrolidin-1-yl]pyrido[2,3-d]pyrimidin-2-yl}-2,7-dimethylindazol-6-ol]	< 100	< 100	< 100	A (<100 nM)	< 100
CNC1CCN(c2cnc3nc(-c4cc5cn(C)nc5cc4O)cc(Cl)c3c2)C1 (centres unmarked) [Compound 213, 5-{4-chloro-6-[3-(methylamino)370pyrrolidine-1-yl]-1,8-naphthyridin-2-yl}-2-methylindazol-6-ol]	< 100	< 100	< 100	B (100-1000 nM)	< 100
Cc1c(O)c(-c2ncc3cc(N4C[C@@H](C)N[C@@H](C)C4)cnc3n2)cc2cn(C)nc12 [Compound 214]	100 to 1000	100 to 1000	100 to 1000	B (100-1000 nM)	< 100
C[C@@H]1CN(c2cnc3nc(-c4cc(F)c5nn(C)cc5c4)cc(Cl)c3c2)C[C@H](C)N1 [Compound 215]	100 to 1000	100 to 1000	100 to 1000	B (100-1000 nM)	< 100
Cn1cc2cc(-c3cc(Cl)c4cc(N5CCN6CCCC6C5)cnc4n3)cc(F)c2n1 (centres unmarked) [Compound 216, 4-chloro-2-(7-fluoro-2-methylindazol-5-yl)-6-{hexahydro-1H-pyrrolo[1,2-a]pyrazin-2-yl}-1,8-naphthyridine trifluoroacetic acid]	100 to 1000	100 to 1000	100 to 1000	B (100-1000 nM)	< 100
Cc1c(O)c(-c2cc(-c3ccccn3)c3cc(N4C[C@@H](C)N[C@@H](C)C4)cnc3n2)cc2cn(C)nc12 [Compound 217, 5-{6-[(3R,5S)-3,5-dimethylpiperazin-1-yl]-4-(pyridin-2-yl)-1,8-naphthyridin-2-yl}-2,7-dimethylindazol-6-ol]	> 10000	> 10000	> 10000	C (1000-9999 nM)	> 10000
COc1nc(-c2cc3cn(C)nc3c(F)c2O)nc2ncc(N3C[C@@H](C)N[C@@H](C)C3)cc12 [Compound 218]	< 100	< 100	< 100	A (<100 nM)	< 100
COc1nc(-c2cc3cn(C)nc3c(F)c2O)nc2ncc(N3CCC(N(C)C)CC3)cc12 [Compound 219, 5-{6-[4-(dimethylamino)piperidin-1-yl]-4-methoxypyrido[2,3-d]pyrimidin-2-yl}-7-fluoro-2-methylindazol-6-ol]	< 100	< 100	< 100	A (<100 nM)	< 100
CN(C)[C@@H]1CCN(c2cnc3nc(-c4cc5cn(C)nc5c(F)c4O)cc(Cl)c3c2)C1 [Compound 220]	< 100	< 100	< 100	A (<100 nM)	< 100
CN(C)[C@H]1CCN(c2cnc3nc(-c4cc5cn(C)nc5c(F)c4O)cc(Cl)c3c2)C1 [Compound 221]	< 100	< 100	< 100	A (<100 nM)	< 100

From US20250326748A1, “COMPOUNDS AND METHODS FOR MODULATING SPLICING” (REMIX THERAPEUTICS INC., priority 2022, published 2025)
